Measured values as given in patent publication US9814714B2, “Kinase modulation, and indications therefor” (Plexxikon Inc., priority 2015, dated 2017).

Columns and labels:
[1] = tested on: pERK in IPC-298 cells (NRAS^Q61L); assay: Phospho-ERK AlphaScreen assay, pERK activation in IPC-298; format: cell-based, human; details: Homo sapiens, IPC-298, read-out: pERK activation EC50 IPC298
Experimental: (§1) Phospho-ERK AlphaScreen® assay: The degree of ERK phosphorylation was determined using an AlphaScreen® assay where an increase in ERK1/2 phosphorylation at Thr202/Tyr204 brought the donor and acceptor AlphaScreen® beads into close proximity, generating a signal for quantification. To determine the effects of compound treatment on phosphorylation of ERK1/2, cells were plated in a 96-well plate and treated with an 8-point titration of compound for one hour at 37° C. before lysis. To detect pERK, cell lysates were incubated with streptavidin-coated AlphaScreen® donor beads, anti-mouse IgG AlphaScreen® acceptor beads, a biotinylated anti-ERK1/2 rabbit antibody, and a mouse antibody that recognizes ERK1/2 only when it is phosphorylated on Thr202 and Tyr204. The biotinylated ERK1/2 antibody binds to both the streptavidin-coated AlphaScreen® donor beads and to ERK1/2 (regardless of its phosphorylation state), and the phospho-ERK1/2 antibody binds to the acceptor beads and to ERK1/2 that is phosphorylated at Thr202/Tyr204. An increase in ERK1/2 phosphorylation at Thr202/Tyr204 brings the donor and acceptor AlphaScreen® beads into close proximity, generating a signal that can be quantified on an EnVision reader (Perkin Elmer).
(§2) Using AlphaScreen® technology, the ability of Formula I to affect the phosphorylation of ERK and MEK in the cells was measured quantitatively. Following treatment with compound, the cells were lysed, and a sample of the lysate was transferred to an assay plate. The lysate was mixed with antibodies directed against total ERK/MEK, antibodies that recognize specific phosphorylation sites on ERK/MEK, AlphaScreen® anti-mouse IgG Acceptor beads, and Streptavidin Donor beads. Upon excitation of the donor beads with laser light at 680 nm, singlet oxygen was produced. This singlet oxygen was rapidly quenched, unless the AlphaScreen® Acceptor beads were in close proximity, in which case a proximity signal can be measured at 580 nm. In the presence of phosphorylated ERK/MEK, there is a very strong proximity signal.
(§3) 1. One day before the assay, 50,000 cells were plated in each well of a 96-well tissue-culture-treated plate (Corning #3610) in a 50 μL volume. Cells were incubated at 37° C. overnight.
(§4) 2. Compounds were diluted in DMSO to 500× final concentration. Each compound was plated as an 8-point titration, using 1:3 dilutions in DMSO. The maximum concentration was about 5 mM.
(§5) 3. 1 μl of compound was added to each well of a 96-well polypropylene plate (Corning #3363). For A375, COLO829, SK-MEL-3, HCT116, and HT-29, the high control was DMSO, and the low control was 10 μM PLX4720 (CAS No. 918505-84-7). For B9 and IPC-298, the high control was 3.33 μM PLX4720, and the low control was DMSO. 4. 249 μL growth media was added to compounds, diluting them 250-fold. 5. […] The compound was incubated with the cells at 37° C. for one hour. 6. The media was aspirated, and the cells were lysed in 50 μL of ice-cold 1× Cell Lysis buffer. The plates were incubated on ice for 5 minutes to allow complete lysis of the cells. 7. A mixture of biotinylated donor antibody, acceptor antibody, and anti-mouse IgG AlphaScreen® acceptor beads in 1× AlphaLISA immunoassay buffer was prepared. 8. 5 μL of lysate was transferred to a 384-well assay plate (Perkin Elmer #6005359). 5 μL of the antibody and acceptor bead mixture was added. The plates were spinned.

[2] = tested on: pERK in COLO829 cells (BRAF^V600E, heterozygous); assay: Phospho-ERK AlphaScreen assay, pERK inhibition in COLO829; format: cell-based; details: Homo sapiens, COLO-829, 1 h, read-out: pERK inhibition IC50 COLO829
Experimental: as §1, §2, §3, §4, §5

[3] = tested on: pERK in HCT116 cells (KRAS^G13D); assay: Phospho-ERK AlphaScreen assay, pERK activation in HCT116; format: cell-based; details: Homo sapiens, HCT-116, read-out: pERK activation EC50 HCT116
Experimental: as §1, §2, §3, §4, §5

[4] = tested on: pERK in B9 cells (HRAS^Q61L); assay: Phospho-ERK AlphaScreen assay, pERK activation in B9; format: cell-based, murine; details: Mus musculus, read-out: pERK activation EC50 B9
Experimental: as §1, §2, §3, §4, §5

[5] = tested on: pERK in A375 cells (BRAF^V600E, homozygous); assay: Phospho-ERK AlphaScreen assay, pERK inhibition in A375; format: cell-based; details: Homo sapiens, A-375, 1 h, read-out: pERK inhibition IC50 A375
Experimental: as §1, §2, §3, §4, §5

[6] = molecular target: NIH/3T3 cells stably expressing KIAA1549-BRAF fusions (Homo sapiens, UniProt P15056); assay: BRAF fusion xenograft tumor growth; format: in vivo, balb/c nu/nu mice; details: three of the four KIAA1549-BRAF fusions; PLX4720 chow
NIH/3T3 cells stably expressing KIAA1549-BRAF fusions, sequence (P15056 448-766 limits assumed): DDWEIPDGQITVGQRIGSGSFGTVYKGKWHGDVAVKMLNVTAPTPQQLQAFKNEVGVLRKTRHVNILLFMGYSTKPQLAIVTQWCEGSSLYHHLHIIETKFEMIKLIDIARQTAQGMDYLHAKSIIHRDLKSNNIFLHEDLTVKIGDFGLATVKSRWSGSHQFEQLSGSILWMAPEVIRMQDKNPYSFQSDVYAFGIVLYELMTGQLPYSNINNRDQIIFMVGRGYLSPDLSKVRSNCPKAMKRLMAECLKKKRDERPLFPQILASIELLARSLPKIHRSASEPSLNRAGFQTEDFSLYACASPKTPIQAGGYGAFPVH
Experimental: NIH/3T3 (ATCC® CRL-1658™) cells stably expressing KIAA1549-BRAF fusions (Fusion-1, Fusion-2, Fusion-3, and Fusion-4) were injected into the flank of balb/c nu/nu mice. Tumor growth was measured with calipers. Ellipsoid tumor volume was calculated using the following formula: volume=½·length·width^2.

**Q.** `CC(C)(C)c1nc(-c2cccc(NS(=O)(=O)c3c(F)cccc3F)c2F)c(-c2ccnc(N)n2)s1` [Dabrafenib, dabrafenib] was tested. Which EC50 [1] did it give?
**A.** Its EC50 is 10 nM.

**Q.** And the IC50 [2]?
**A.** Its IC50 is 5 nM.

**Q.** What about the EC50 [3] of the same molecule?
**A.** The EC50 was 3 nM.

**Q.** What about the EC50 [4] of the same molecule?
**A.** The EC50 was 10 nM.

**Q.** What about the IC50 [5] of the same molecule?
**A.** Its IC50 is 1 nM.

**Q.** For `CCCS(=O)(=O)Nc1ccc(F)c(C(=O)c2c[nH]c3ncc(Cl)cc23)c1F` [PLX4720, reference compound], which “Effect on xenograft tumor growth (in words)” value [6] is on record?
**A.** The value was “increased tumor growth”.

**Q.** For `CNC(=O)c1cc(Oc2ccc(NC(=O)Nc3ccc(Cl)c(C(F)(F)F)c3)cc2)ccn1` [Sorafenib, sorafenib], which EC50 [1] is on record?
**A.** Its EC50 is 19 nM.

**Q.** What about the IC50 [2] of the same molecule?
**A.** Its IC50 is 2000 nM.

**Q.** And the EC50 [3]?
**A.** The EC50 was 86 nM.

**Q.** What about the EC50 [4] of the same molecule?
**A.** The EC50 was 25 nM.

**Q.** And the IC50 [5]?
**A.** Its IC50 is 4400 nM.
